Publication PMC6882492, “Synthesis and biological evaluation of novel thienopyrimidine derivatives as diacylglycerol acyltransferase 1 (DGAT-1) inhibitors” (Journal of Enzyme Inhibition and Medicinal Chemistry, 2019)

How the values were obtained:
hACAT1 = target: T1, hACAT1 (Homo sapiens, UniProt P35610); experiment: Enzymatic assay hACAT1; format: biochemical
T1 sequence (P35610 1-550): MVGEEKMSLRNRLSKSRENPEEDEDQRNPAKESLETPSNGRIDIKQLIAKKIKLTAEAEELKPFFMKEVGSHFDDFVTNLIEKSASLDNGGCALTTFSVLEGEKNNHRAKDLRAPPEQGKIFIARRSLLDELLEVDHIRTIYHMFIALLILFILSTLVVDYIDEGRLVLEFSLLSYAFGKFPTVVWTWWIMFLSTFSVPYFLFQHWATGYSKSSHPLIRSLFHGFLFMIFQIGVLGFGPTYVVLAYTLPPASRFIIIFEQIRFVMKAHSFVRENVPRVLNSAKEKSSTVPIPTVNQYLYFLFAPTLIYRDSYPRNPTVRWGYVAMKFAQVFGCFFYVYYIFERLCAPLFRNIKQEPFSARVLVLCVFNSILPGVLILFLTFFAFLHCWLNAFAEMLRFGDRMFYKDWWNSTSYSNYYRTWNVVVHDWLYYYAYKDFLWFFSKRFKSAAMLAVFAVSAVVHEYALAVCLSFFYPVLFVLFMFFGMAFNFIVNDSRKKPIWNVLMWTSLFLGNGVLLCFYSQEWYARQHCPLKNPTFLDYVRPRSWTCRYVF
From the text: (§1) ACATs have sequence homology to DGAT-1 and play essential roles in cholesterol homeostasis. 17b was not explored in the enzymatic assays due to its poor pharmacokinetic profile.

plasma TAG level = experiment: Oral lipid tolerance test (OLTT), mouse; format: in vivo; conditions: ICR mice, 17a 3 mg/kg po before corn oil, n = 5
Procedure: Male, Institute of Cancer Research (ICR) mice were obtained from OrientBio Inc. (Republic of Korea). ICR mice (8-weeks old, n = 5/group) fasted 16 h, received 5 mL/kg corn oil via oral administration (p.o.) 30 min after compound administration. Plasma was collected at different time points (0, 1, 2, and 4 h).
To determine in vivo efficacy, we evaluated the activity of 17a against serum TAG level induced by the oral administration of corn oil (oral lipid tolerance test, OLTT; Figures 3 and 4), since intestinal targeted DGAT-1 inhibition results in a reduced serum TAG level. 17a was orally administered to ICR mice at 3 mg/kg or to dogs at 1 mg/kg before administration of corn oil.
Figure 3. Effect of 17a in the oral lipid tolerance test (n = 5, ***p < .001). Serum TG (or TAG) concentration was measured before and 1, 2, and 4 h after oral administration of corn oil in ICR mice treated with 17a (3 mg/kg) or 2 (1 mg/kg). Vehicle for 2: 0.5% methylcellulose/0.5% Tween80 in distilled water, vehicle for 17a: 0.5% Tween80 in distilled water.

hDGAT1 = target: T2, hDGAT1 (Homo sapiens, UniProt O75907); experiment: Enzymatic assay hDGAT1; format: biochemical
T2 sequence (O75907 1-488): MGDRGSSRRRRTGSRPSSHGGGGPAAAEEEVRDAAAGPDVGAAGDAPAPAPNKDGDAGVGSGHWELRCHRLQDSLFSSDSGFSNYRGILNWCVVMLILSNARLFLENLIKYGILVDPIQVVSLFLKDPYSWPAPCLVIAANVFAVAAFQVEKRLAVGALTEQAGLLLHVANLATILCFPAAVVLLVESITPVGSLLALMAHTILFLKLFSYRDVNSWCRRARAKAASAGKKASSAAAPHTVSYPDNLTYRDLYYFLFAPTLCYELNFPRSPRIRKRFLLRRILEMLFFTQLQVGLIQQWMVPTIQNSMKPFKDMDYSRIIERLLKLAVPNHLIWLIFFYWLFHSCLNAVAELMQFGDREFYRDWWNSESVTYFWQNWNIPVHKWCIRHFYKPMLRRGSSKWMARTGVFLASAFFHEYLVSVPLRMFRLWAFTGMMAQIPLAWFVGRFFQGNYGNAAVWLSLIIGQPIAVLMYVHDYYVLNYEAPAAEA
From the text: as §1

[1] = Tissue distribution in mice; format: in vivo; conditions: ICR mice, 30 mg/kg oral, n = 3
Procedure: In addition, tissue distribution of 17a was investigated. 17a was orally administered to mice at 30 mg/kg, and 2 was administrated as a positive control (Figure 5). […] Significant activity of 17a in the OLTT appeared to result from high concentration in the small intestine, even though bioavailability of 17a was not great in mice.
Figure 5. Tissue distribution of 17a in mice. 17a and 2 were orally administered to ICR mice at 30 mg/kg (n = 3). (a) AUC values of 17a and 2 in indicated tissues. […] Data represent mean value. (b) Tissue-to-plasma (T/P) ratio of 17a and 2. S.I.: small intestine, L.I.: large intestine.

[2] = In vitro microsomal stability, dog; format: in vitro ADME; conditions: dog liver microsomes, 5 μM, 60 min
CYP2D6 = CYP2D6 (Homo sapiens, UniProt P10635); experiment: CYP inhibition assay CYP2D6; format: in vitro ADME; conditions: fluorescence detection method; read-out: CYPs enzyme inhibition, IC50, CYP2D6
[3] = In vitro microsomal stability, mouse; format: in vitro ADME; conditions: mouse liver microsomes, 5 μM, 60 min
CYP1A2 = target: T3, CYP1A2 (Homo sapiens, UniProt P05177); experiment: CYP inhibition assay CYP1A2; format: in vitro ADME; conditions: fluorescence detection method; read-out: CYPs enzyme inhibition, IC50, CYP1A2
T3 sequence (P05177 1-516): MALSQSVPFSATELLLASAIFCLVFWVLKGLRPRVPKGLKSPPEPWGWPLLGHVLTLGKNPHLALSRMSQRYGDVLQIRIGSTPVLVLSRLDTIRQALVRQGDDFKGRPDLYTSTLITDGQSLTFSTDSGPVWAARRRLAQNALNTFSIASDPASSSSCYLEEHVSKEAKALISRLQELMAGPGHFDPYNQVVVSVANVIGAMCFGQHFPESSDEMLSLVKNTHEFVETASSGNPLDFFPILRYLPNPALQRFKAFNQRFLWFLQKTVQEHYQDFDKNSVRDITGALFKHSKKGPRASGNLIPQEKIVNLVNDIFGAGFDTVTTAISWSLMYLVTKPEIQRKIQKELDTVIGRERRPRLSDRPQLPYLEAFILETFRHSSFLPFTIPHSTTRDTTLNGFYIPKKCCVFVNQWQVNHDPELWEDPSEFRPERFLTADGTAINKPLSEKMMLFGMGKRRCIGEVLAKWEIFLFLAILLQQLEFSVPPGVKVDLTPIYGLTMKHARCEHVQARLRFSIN

CYP2C19 = CYP2C19 (Homo sapiens, UniProt P33261); experiment: CYP inhibition assay CYP2C19; format: in vitro ADME; conditions: fluorescence detection method; read-out: CYPs enzyme inhibition, IC50, CYP2C19
[4] = Pharmacokinetic profile in rat; format: in vivo

Sequence of CYP2D6 (P10635 whole entry): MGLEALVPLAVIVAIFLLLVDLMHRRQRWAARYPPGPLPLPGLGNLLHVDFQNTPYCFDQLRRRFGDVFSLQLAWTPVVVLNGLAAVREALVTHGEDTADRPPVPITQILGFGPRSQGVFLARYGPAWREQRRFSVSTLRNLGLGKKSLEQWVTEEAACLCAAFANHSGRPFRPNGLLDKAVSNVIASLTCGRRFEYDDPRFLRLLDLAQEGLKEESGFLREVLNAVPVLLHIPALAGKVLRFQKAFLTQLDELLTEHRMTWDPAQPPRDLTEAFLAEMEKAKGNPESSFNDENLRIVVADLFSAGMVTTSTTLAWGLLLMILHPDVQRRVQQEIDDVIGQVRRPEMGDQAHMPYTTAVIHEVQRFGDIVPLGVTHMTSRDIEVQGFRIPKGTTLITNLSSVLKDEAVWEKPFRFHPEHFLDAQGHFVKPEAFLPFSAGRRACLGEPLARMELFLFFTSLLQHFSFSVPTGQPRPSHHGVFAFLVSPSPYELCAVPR
Sequence of CYP2C19 (P33261 whole entry): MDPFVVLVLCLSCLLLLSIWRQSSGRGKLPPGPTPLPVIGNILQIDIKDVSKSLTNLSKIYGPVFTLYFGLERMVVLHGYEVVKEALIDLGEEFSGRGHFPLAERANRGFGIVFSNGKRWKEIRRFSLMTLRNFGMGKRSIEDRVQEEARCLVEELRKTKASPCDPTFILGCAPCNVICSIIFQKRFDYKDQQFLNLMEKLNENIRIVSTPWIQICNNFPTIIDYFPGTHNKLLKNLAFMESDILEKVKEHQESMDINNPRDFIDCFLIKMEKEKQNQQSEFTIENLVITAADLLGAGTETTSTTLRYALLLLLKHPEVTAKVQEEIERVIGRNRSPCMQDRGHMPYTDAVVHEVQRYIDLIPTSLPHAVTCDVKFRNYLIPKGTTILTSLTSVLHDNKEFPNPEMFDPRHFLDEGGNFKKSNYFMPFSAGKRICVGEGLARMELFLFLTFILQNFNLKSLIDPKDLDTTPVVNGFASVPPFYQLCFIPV

SMILES: O=C([O-])C[C@H]1CC[C@@H](c2csc3c(-c4ccc(NC(=O)Nc5cccc(Cl)c5)cc4)ncnc32)CC1.[Na+] [Compound 17a, Sodium cis-2–(4–(4-(4-(3–(3-chlorophenyl)ureido)phenyl)thieno[3,2-d]pyrimidin-7-yl)cyclohexyl)acetate]
- IC50 (hACAT1): > 10 µM
- Reduction of plasma TAG level in OLTT (plasma TAG level): significant activity, as potent as compound 2
- IC50 (hDGAT1): 0.061 µM
- Tissue distribution (concentration levels in tissues) [1]: in the liver and small intestine were much higher than in other tissues
- Microsomal stability, remaining percent [2]: 82%
- IC50 (CYP2D6): 8.7 µM
- Microsomal stability, remaining percent [3]: 82%
- IC50 (CYP1A2): 10.6 µM
- IC50 (CYP2C19): > 20 µM
- Cl ([4]; 3 mg/kg iv, 10 mg/kg po): 0.5 ± 0.2 L/h/kg
- half-life ([4]; in vivo, 10 mg/kg po): 3 ± 0.4 h
- bioavailability ([4]; in vivo, 10 mg/kg po vs 3 mg/kg iv): 30%
- AUC ([4]; in vivo, 10 mg/kg po, read-out: AUC 0 ∼ 24): 18.6 µg·h/mL
